Where “and” joins values, the source holds several entries; their conditions need not be identical. Equal entries are not always repeated.
How the values were obtained:
[1] = molecular target: T1, GPR139 (Homo sapiens, UniProt Q6DWJ6); assay: Ca2+ mobilization assay, agonist mode, stable GPR139-CHOk1 cell line; type: cell-based; settings: Agonist mode; individual replicates (Supplementary Figure 1)
T1 sequence (Q6DWJ6 1-353): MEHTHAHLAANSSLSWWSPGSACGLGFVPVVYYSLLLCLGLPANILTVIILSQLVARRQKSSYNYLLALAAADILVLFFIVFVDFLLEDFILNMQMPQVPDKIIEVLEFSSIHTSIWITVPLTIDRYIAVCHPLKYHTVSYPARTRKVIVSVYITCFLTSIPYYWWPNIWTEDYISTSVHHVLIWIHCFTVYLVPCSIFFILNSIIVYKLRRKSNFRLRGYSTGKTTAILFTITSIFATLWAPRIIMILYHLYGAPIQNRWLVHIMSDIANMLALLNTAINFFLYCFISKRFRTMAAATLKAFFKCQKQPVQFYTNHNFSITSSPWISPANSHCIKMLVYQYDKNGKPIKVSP
Outline: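 Agonist activity of compounds is assessed in stably transfected CHO-K1 cells using the calcium dye Fluo-4 at 37 °C in HEPES-buffered HBSS (pH 7.4). Efficacy is expressed relative to the reference agonist Lundbeck Cmp 1a, set as 100%.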

[2] = molecular target: T1, GPR139; assay: Ca2+ mobilization assay, antagonist mode (EC80 800 nM Lundbeck Cmp 1a after 20 min preincubation), GPR139-CHOk1; type: cell-based; settings: individual replicates (Supplementary Figure 1)
Outline: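 Fluo-4-loaded GPR139-CHOk1 cells in HEPES-buffered HBSS (pH 7.4, 2.5 mM probenecid) given test compounds at 10 µM, then after 20 min challenged with 800 nM Lundbeck Cmp 1a (EC80). Calcium fluorescence read at 37 °C, 485/525 nm.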

Row | SMILES | Ca2+ signal (% of Cmp 1a) [1] | Ca2+ signal (% of Cmp 1a) [2]
1 | Cc1noc(-c2ccc(C)c(NC(=O)CSc3nncs3)c2)n1 [Compound 65, CC1=NOC(=N1)C=2C=CC(C)=C(NC(=O)CSC3=NN=CS3)C2] | 2.7 % of Cmp 1a and 1.38 % of Cmp 1a and -3.61 % of Cmp 1a | 71.2308 % of Cmp 1a and 90.2803 % of Cmp 1a and 89.1818 % of Cmp 1a
2 | O=C(CCn1cncn1)Nc1ccc(Oc2ccc(Cl)cc2)nc1 [Compound 66, ClC=1C=CC(OC=2C=CC(NC(=O)CCN3C=NC=N3)=CN2)=CC1] | 6.43 % of Cmp 1a and -3.62 % of Cmp 1a and -6 % of Cmp 1a | 74.4571 % of Cmp 1a and 74.7932 % of Cmp 1a and 88.8781 % of Cmp 1a
3 | CC(C(=O)Nc1cccc(-c2nc3ccccc3n2C)c1)n1cccn1 (centres unmarked) [Compound 67, CC(C(=O)NC=1C=CC=C(C1)C2=NC=3C=CC=CC3N2C)N4C=CC=N4] | 3.19 % of Cmp 1a and -6 % of Cmp 1a and -7 % of Cmp 1a | 87.0817 % of Cmp 1a and 99.3874 % of Cmp 1a and 88.8295 % of Cmp 1a
4 | Cc1ccc(-c2nc(CC(=O)NCc3ccccc3)cs2)cc1 [Compound 68, CC=1C=CC(=CC1)C2=NC(CC(=O)NCC=3C=CC=CC3)=CS2] | -9 % of Cmp 1a and 15 % of Cmp 1a and 19 % of Cmp 1a | 60.0488 % of Cmp 1a and 59.0311 % of Cmp 1a and 102.015 % of Cmp 1a

— paper PMC12775434, “Ultra-large virtual screening unveils potent agonists of the neuromodulatory orphan receptor GPR139” (Nature Communications, 2025)
